Measured values from article PMC12250170, “Synthesis of Novel Podophyllotoxin–Benzothiazole Congeners and Their Biological Evaluation as Anticancer Agents” (International Journal of Molecular Sciences, 2025).
Read-outs that look alike come from different tables or passages of the source.

Columns and labels:
[1] = tested on: MCF-7 (breast cancer) cells; test: In vitro cytotoxicity, crystal violet assay, MCF-7; type: cell-based, human
Description: (§1) The synthesized compounds were tested and evaluated for their cytotoxicity using an in vitro cytotoxicity assay. We studied five cancer cell lines and one non-cancerous cell line. The cells were purchased from the American Type Culture Collection (ATCC), United States, including HeLa (cervical), LoVo (colorectal), MCF-7 (breast), SKOV3 (ovarian), B16F10 (murine melanoma), and HaCaT (human keratinocyte). Dulbecco’s modified Eagle’s medium (containing 10% FBS) was used to culture HeLa, MCF-7, B16F10, and HaCaT cells, while RPMI 1640 medium (containing 10% FBS) was used for SKOV3 and LoVo cells. The cells were cultured in 25 cm^2 culture flasks (Corning, Corning, NY, USA) in a humidified atmosphere of 5% CO2 at 37 °C and passaged every three days with standard Trypsin-EDTA solution (Gibco, Thermo Fisher Scientific, Waltham, MA, USA). All compounds were initially prepared as stock solutions at a concentration of 10 mM (in DMSO). Serial dilutions were performed in the indicated medium to achieve the required concentration gradient of compounds (20 µM, 10 µM, 5 µM, 2.5 µM, 1.25 µM, 0.625 µM, 0.312 µM). The maximum percentage of DMSO used in the compound solutions was 0.1%, based on the procedure previously described by our group.
(§2) This assay was performed in reference to the method already described. In brief, the cell lines (HeLa, MCF-7, and SKOV-3) were seeded in the indicated medium in a 96-well culture plate (Nest Biotechnology, Wuxi, China) at a density of 1 × 10^4 cells per well (100 µL) in quadruplicates and then incubated at 37 °C in a 5% CO2 atmosphere. After 24 h of incubation, 100 µL aliquots of the compounds in medium at increasing concentrations were added to each well, and the cells were further incubated for 48 h. After the incubation period, the cells were washed with PBS twice, and then with 70% ethanol, followed by staining with 0.05% crystal violet solution in water (ChemPur, Piekary Slaskie, Poland) for 20 min. The excess crystal violet was washed out with distilled water several times. The stained cells then solubilized in 1% Triton™ X-100 Surfact-Amps (POCH SA, Gliwice, Poland) or 10% PBS. The absorbance of each well was measured using Fluostar plate reader at […].
(§3) Data analysis was carried out using GraphPad Prism 5.0.3. Calculations were performed using MS-Excel version 2021. The cytotoxic effect was expressed as the relative viability of treated cells (percentage growth control) and was calculated as follows: % relative viability = Ae−Ab/Ac−Ab×100% , where Ae is experimental absorbance/fluorescence intensity, Ac is the absorbance/ fluorescence intensity of growth control (only cells with medium), and Ab is the absorbance/fluorescence intensity of a blank (only medium). The IC50 values were obtained by using the sigmoidal dose–response function in GraphPad Prism. The results were expressed as mean ± standard deviation (SD).

[2] = tested on: SKOV-3 (ovarian cancer) cells; test: In vitro cytotoxicity, crystal violet assay, SKOV-3; type: cell-based, human
Description: as §1, §2, §3

[3] = tested on: LoVo (colorectal cancer) cells; test: In vitro cytotoxicity, PrestoBlue assay, LoVo; type: cell-based, human; conditions: 48 h, read-out: IC50 ± SD, LoVo
Description: as §1
(§4) The PrestoBlue assay was performed according to the method previously reported by Strus et al.. The cells (LoVo and B16F10) were seeded in the indicated medium in a 96-well culture plate (Nest Biotechnology) at a density of 1 × 10^4 cells per well (100 µL) and incubated at 37 °C in a 5% CO2 atmosphere. After 24 h of incubation, 100 µL aliquots of the compounds in medium were added to each well, and the cells were further incubated for 48 h. After 48 h, the old medium was removed, and 100 µL of fresh medium was added. Then, 10 µL of PrestoBlue solution (Thermo Fisher Scientific, Waltham, MA, USA) was added to each well and incubated for 60 min. The fluorescence intensity was measured with excitation at 544 nm and emission at 615 nm using a Fluorstar microplate reader (BMG Labtech, Ortenberg, Germany). The results were expressed as a percentage of the intensity relative to that of control cells (non-treated cells).
as §3

[4] = tested on: HeLa (cervix cancer) cells; test: In vitro cytotoxicity, crystal violet assay, HeLa; type: cell-based, human
Description: as §1, §2, §3

[5] = tested on: HaCaT (human keratinocyte) cells; test: In vitro cytotoxicity, PrestoBlue assay, HaCaT (non-tumorigenic); type: cell-based; conditions: 48 h, read-out: IC50 ± SD, HaCaT
[6] = tested on: B16F10 (murine melanoma) cells; test: In vitro cytotoxicity, PrestoBlue assay, B16F10; type: cell-based; conditions: read-out: IC50 ± SD, B16F10
Description: as §1, §4, §3

[7] = tested on: cancer cell lines (MCF-7, SKOV-3, B16F10, LOVO, and HeLa) and HaCaT; test: In vitro cytotoxicity assay, results summarised over the cell line panel; type: cell-based; conditions: for Cytotoxicity in words: all tested cell lines
Description: The cytotoxicity properties of semi-synthesized compounds 7–15 was evaluated against five types of cancer cell lines including, human: HeLa (cervix cancer), LoVo (colorectal cancer), MCF-7 (breast cancer), SKOV-3 (ovarian cancer), and murine: B16F10 (malignant melanoma). Thus, various human tumor cell lines representing major types of malignant cancers were included in the study protocol. Non-tumorigenic HaCaT cells were used as a representative model of normal (non-cancerous) cells. The crystal violet assay and PrestoBlue assay were used to evaluate the cytotoxic/cytostatic effect. We also included the cytotoxicity data of podophyllotoxin and etoposide as reference values.
as §1, §2, §4
Data analysis was carried out using GraphPad Prism 5.0.3. Calculations were performed using MS-Excel version 2021. […]

HeLa cells = test: Cell cycle analysis by flow cytometry (propidium iodide); type: cell-based, human
Description: To determine the possible mechanisms of compounds 7 and 11 in inhibiting the proliferation of cancer cells, cell cycle analysis was performed with the flow cytometry method, as shown in Figure 3. Compound 7 was previously reported to inhibit proliferation of HaCaT cells via cell cycle arrest in G2/M [18]. As a reference, HeLa cells were treated with the indicated concentrations of compounds 7 and 11 for 24 h and 48 h, and the cell cycle phases distribution of treated cells was determined with the propidium iodide (PI) method, as previously described. The effects of novel podophyllotoxin derivatives on cell cycle phase distribution were evaluated in cells exposed to these compounds for 24 h or 48 h. Three compounds were compared: podophyllotoxin 1, KL-3 derivative 7, and its analog lacking the ester group 11.
For cell cycle analysis, HeLa cells were treated for 24 or 48 h with compounds 7 and 11 at concentrations of 5 µM and 10 µM. After the incubation period, the cells were fixed in a freezing medium (ice-cold 70% ethanol solution in PBS) and stored at −20 °C. The cell suspension was then centrifuged, washed with PBS, and resuspended in PBS containing 200 µg of DNase-free RNase A (Sigma) for 20 min at room temperature. Propidium iodide (Sigma) was added to a final concentration of 5 µg/mL, and the cells were stained for at least 2 h at 4 °C. The analysis was performed using a FACSCalibur flow cytometer (Becton Dickinson, San Diego, CA, USA) and analyzed with CellQuest software, v.3.3.

[8] = Homo sapiens, MCF7, 48 h, MCF-7, crystal violet assay, read-out: IC50 ± SD, MCF-7
[9] = Homo sapiens, SK-OV-3, 48 h, SKOV-3, crystal violet assay, read-out: IC50 ± SD, SKOV-3
[10] = Homo sapiens, HeLa, 48 h, HeLa, crystal violet assay, 48 h; read-out: IC50 ± SD, HeLa
[11] = Homo sapiens, MCF7; MCF-7, crystal violet assay, 48 h; read-out: IC50 ± SD, MCF-7
[12] = Homo sapiens, SK-OV-3; SKOV-3, crystal violet assay, 48 h; read-out: IC50 ± SD, SKOV-3
[13] = Homo sapiens; HeLa, crystal violet assay, 48 h; read-out: IC50 ± SD, HeLa
[14] = MCF-7, crystal violet assay, 48 h; read-out: IC50 ± SD, MCF-7
[15] = SKOV-3, crystal violet assay, 48 h; read-out: IC50 ± SD, SKOV-3
[16] = concentration and time not given
[17] = HeLa, crystal violet assay, 48 h; read-out: IC50 ± SD, HeLa
[18] = MCF-7, SKOV-3, B16F10, LOVO, HeLa, read-out: IC50, range over all tested cancer cell lines

Structure (SMILES) | IC50 [1, 8] [µM] | IC50 [2, 9] [µM] | IC50 ([3]; Homo sapiens) [µM] | IC50 [4, 10] [µM] | Selectivity Index (SI) ([4]; SI = IC50HaCaT/IC50HeLa) | IC50 ([5]; Homo sapiens) [µM] | IC50 ([6]; Mus musculus, B16-F10, 48 h) [µM] | IC50 [1, 11] [µM] | IC50 [2, 12] [µM] | IC50 [4, 13] [µM] | Cytotoxicity in words [7] | other results
COC(=O)[C@H]1C(c2nc3ccccc3s2)=Cc2cc(O)c(O)cc2[C@H]1c1cc(OC)c(O)c(OC)c1 [Compound 14] | 11.9 ± 1.75 | 15.3 ± 1.31 | 11.7 ± 1.02 | > 20 | <1 | 13.1 ± 1.75 | > 20 |  |  |  |  | 
COc1cc([C@@H]2c3cc4c(cc3C=C(c3nc5ccccc5s3)[C@@H]2CO)OCO4)cc(OC)c1OC [Compound 13] |  |  | > 20 |  |  | > 20 | > 20 | > 20 | > 20 | > 20 | no effect | 
COC(=O)[C@H]1C(c2nc3ccccc3s2)=Cc2cc3c(cc2[C@H]1c1cc(OC)c(O)c(OC)c1)OCO3 [Compound 15] |  |  | 10.9 ± 0.95 |  | 3.05 | 7.59 ± 0.76 | 3.76 ± 0.49 | 3.44 ± 0.81 | 3.73 ± 0.75 | 2.49 ± 0.25 |  | IC50 ([7]; read-out: IC50, range over all the cell lines tested, except for LoVo cells): 2.49 to 3.76 µM
COC(=O)[C@H]1C(c2nc3cc(C(F)(F)F)ccc3s2)=Cc2cc3c(cc2[C@H]1c1cc(OC)c(OC)c(OC)c1)OCO3 [Compound 8] | > 20 | > 20 | > 20 | > 20 |  | > 20 | > 20 |  |  |  | inactive | 
COc1cc([C@@H]2c3cc4c(cc3[C@@H](O[C@@H]3O[C@@H]5CO[C@@H](C)O[C@H]5[C@H](O)[C@H]3O)[C@H]3COC(=O)[C@H]23)OCO4)cc(OC)c1O [Compound 2, etoposide, reference compound] | 0.31 ± 0.017 | 3.15 ± 0.38 | 2.48 ± 0.47 | 5.73 ± 1.48 | 0.23 | 1.32 ± 0.16 | 6.68 ± 2.32 |  |  |  |  | 
COC(=O)C1C(c2nc3ccccc3s2)=Cc2cc3c(cc2C1c1cc(OC)c(OC)c(OC)c1)OCO3 (stereo not drawn) [Compound 7] |  |  |  |  | 1.26 |  |  |  |  |  |  | IC50 [1, 14]: 0.59 ± 0.05 µM; IC50 [2, 15]: 1.1 ± 0.13 µM; IC50 [3]: 0.83 ± 0.08 µM; Cells arrested in the G2/M phase (HeLa cells; [16]): approximately 90%; IC50 [4, 17]: 0.68 ± 0.05 µM; IC50 [7, 18]: 0.68 to 2.88 µM; IC50 [5]: 0.86 ± 0.05 µM; IC50 ([6]; 48 h): 1.78 ± 0.55 µM
COc1cc([C@H]2CC(c3nc4ccccc4s3)=Cc3cc4c(cc32)OCO4)cc(OC)c1OC [Compound 11] | 1.98 ± 0.49 | 1.79 ± 0.28 | 2.88 ± 0.87 | 1.54 ± 0.24 |  | 1.9 ± 0.14 | 1.93 ± 0.25 |  |  |  |  | Cells arrested in the G2/M phase (HeLa cells; higher concentrations, after 48 h of exposure): approximately 43%; IC50 [7, 18]: 0.68 to 2.88 µM; IC50 ([7]; read-out: IC50, range over all tested cell lines): 1.54 to 2.88 µM
COC(=O)c1c(-c2nc3ccccc3s2)cc2cc3c(cc2c1-c1cc(OC)c(OC)c(OC)c1)OCO3 [Compound 12] | > 20 | > 20 | > 20 | > 20 |  | > 20 | > 20 |  |  |  | no effect | 
COC(=O)C1C(c2nc3ccccc3s2)=Cc2cc3c(cc2C1c1cc(OC)c(OC)c(OC)c1)OCO3 (stereo not drawn) [Compound 10] |  |  |  |  |  |  |  |  |  |  | no cytotoxicity | IC50 [1, 14]: > 20 µM; IC50 [2, 15]: > 20 µM; IC50 [3]: > 20 µM; IC50 [4, 17]: > 20 µM; IC50 [5]: > 20 µM; IC50 ([6]; 48 h): > 20 µM
COC(=O)C1C(c2nc3cc(Cl)ccc3s2)=Cc2cc3c(cc2C1c1cc(OC)c(OC)c(OC)c1)OCO3 (stereo not drawn) [Compound 9] |  |  | 11.1 ± 2.55 |  | 7.31 | 13.2 ± 2.89 | > 20 | 2.02 ± 0.11 | 10.4 ± 0.73 | 1.81 ± 0.13 |  | IC50 ([7]; read-out: IC50, range over HeLa and MCF-7): 1.81 to 2.02 µM
COc1cc([C@@H]2c3cc4c(cc3[C@H](O)[C@H]3COC(=O)[C@H]23)OCO4)cc(OC)c1OC [Compound 1, Podophyllotoxin] |  |  | 0.033 ± 0.0077 |  | 0.52 | 0.0046 ± 0.0006 | 0.092 ± 0.05 | 0.0039 ± 0.0005 | 0.017 ± 0.0028 | 0.0089 ± 0.0003 |  | Cells arrested in the G2/M phase (HeLa cells; [16]): approximately 90%
